Data as given in patent publication US11807649B2, “Fused tetracyclic quinazoline derivatives as inhibitors of ErbB2” (EnLiven Therapeutics, Inc., priority 2021, dated 2023).
pIC50: −log10 of the molar value. Like-named read-outs stand apart in the source and are kept apart here.

Key:
Assay type in all cases: cell-based
Ba/F3 ERBB2 YVMA = assay: Cell viability assay (CellTiter Glo), Ba/F3 cells engineered to express ERBB2 YVMA; conditions: Mus musculus, BaF3, 72 h
[1] = target: phosphorylated ERBB2 (pERBB2) (Homo sapiens (Human), UniProt P04626); assay: Detection of phosphorylated ERBB2 (pERBB2) by ELISA in BT-474 cells; conditions: four hours incubation with compound
phosphorylated ERBB2 (pERBB2), sequence (P04626 23-1255): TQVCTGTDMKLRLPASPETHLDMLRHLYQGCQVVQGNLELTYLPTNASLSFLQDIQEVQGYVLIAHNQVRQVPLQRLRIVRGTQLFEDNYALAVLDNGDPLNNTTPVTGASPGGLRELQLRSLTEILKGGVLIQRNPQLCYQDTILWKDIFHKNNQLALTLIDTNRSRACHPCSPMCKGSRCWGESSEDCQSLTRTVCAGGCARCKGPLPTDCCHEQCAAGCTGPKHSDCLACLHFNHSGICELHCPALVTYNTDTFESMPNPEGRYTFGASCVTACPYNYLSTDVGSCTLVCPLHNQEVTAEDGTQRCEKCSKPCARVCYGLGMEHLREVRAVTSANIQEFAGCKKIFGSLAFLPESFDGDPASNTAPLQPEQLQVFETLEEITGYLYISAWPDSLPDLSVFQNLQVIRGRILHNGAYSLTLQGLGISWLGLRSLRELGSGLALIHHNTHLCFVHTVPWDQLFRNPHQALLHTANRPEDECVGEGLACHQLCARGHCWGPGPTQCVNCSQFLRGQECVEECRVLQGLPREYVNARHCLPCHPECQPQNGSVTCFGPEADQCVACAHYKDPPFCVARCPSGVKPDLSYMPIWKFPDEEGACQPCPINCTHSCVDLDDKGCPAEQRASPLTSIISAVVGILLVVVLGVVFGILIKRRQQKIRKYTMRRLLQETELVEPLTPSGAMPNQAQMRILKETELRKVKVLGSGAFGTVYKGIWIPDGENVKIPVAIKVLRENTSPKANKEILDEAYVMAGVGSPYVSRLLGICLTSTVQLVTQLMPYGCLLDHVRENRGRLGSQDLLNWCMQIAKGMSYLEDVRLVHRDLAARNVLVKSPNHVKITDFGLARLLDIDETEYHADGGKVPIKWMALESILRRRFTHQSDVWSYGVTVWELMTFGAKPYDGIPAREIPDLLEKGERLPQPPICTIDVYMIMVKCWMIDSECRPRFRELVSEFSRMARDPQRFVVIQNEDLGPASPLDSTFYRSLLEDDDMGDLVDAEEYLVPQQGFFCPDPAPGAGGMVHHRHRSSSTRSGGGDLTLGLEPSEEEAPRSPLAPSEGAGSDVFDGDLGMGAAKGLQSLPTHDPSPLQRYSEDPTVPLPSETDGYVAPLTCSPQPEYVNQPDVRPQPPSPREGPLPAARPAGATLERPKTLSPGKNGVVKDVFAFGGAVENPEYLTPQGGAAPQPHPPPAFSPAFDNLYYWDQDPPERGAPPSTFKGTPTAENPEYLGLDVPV
Experimental: BT-474 cells were seeded into a 96-well at 2.0*10^4 cells/100 μl/well. Compounds were dissolved and serially diluted in DMSO. The compounds were then were added, mixed, and incubated for four hours at 37° C., 5% CO2. […] Following the four hour incubation with compounds, cell lysates were prepared. Plates were centrifuged for 5 min at 3000 RPM, and supernatant was removed from each well. Cells were washed 3 times by resuspension in 150 μl PBS, followed by centrifugation and removal of the supernatant, as above. 100 μl of cell lysis buffer (Boston BioProducts, cat #BP-115D) supplied with 1× complete ULTRA cocktail inhibitor (Thermo ScientificTM, cat #78443) was then added to the washed cells. Cells were incubated with lysis buffer for 1 hour at 4° C., and then stored at -80° C. Enzyme-linked immunosorbent assays (ELISA) were performed to measure phosphorylated ERBB2 levels. […] The next day, plates were washed with PBS+0.05% Tween20 (PBST). 150 μl of 5% BSA blocking solution was added for 1 hour at room temperature, with shaking. Plates were washed with PB ST. Cell lysates were thawed and 100 μl of lysate was added to the ELISA plate. The plates were incubated for 2 hours at room temperature, with shaking. ELISA plates were then washed with PBST and 100 μl of an HRP-labeled detection antibody that binds phosphorylated tyrosine (R&D Systems, cat #841913) was added to each well. Plates were incubated for 1 hour at room temperature, with shaking. Plates were then washed with PBST, and 100 μl TMB substrate solution (R&D Systems, cat #DY999) was added. Plate were incubated in the dark for 20 minutes at room temperature. 50 μl of Stop solution (R&D Systems, cat #DY994) (50 μl) was added to each well and mixed. […] The remaining kinase activity by calculated using the following formula: % Relative activity=100×([…]). The low and high control values (“LC” and “HC”) were generated from lysate from wells without cells or with cells treated with 0.1% DMSO, respectively.

[2] = target: phosphorylated EGFR (pEGFR) (Homo sapiens (Human), UniProt P00533); assay: Detection of phosphorylated EGFR (pEGFR) in EGF-stimulated A431 cells (AlphaLISA); conditions: A431 cells (10% FBS), 4 hours incubation, then EGF 30 ng/mL for 10 minutes
phosphorylated EGFR (pEGFR), sequence (P00533 25-1210): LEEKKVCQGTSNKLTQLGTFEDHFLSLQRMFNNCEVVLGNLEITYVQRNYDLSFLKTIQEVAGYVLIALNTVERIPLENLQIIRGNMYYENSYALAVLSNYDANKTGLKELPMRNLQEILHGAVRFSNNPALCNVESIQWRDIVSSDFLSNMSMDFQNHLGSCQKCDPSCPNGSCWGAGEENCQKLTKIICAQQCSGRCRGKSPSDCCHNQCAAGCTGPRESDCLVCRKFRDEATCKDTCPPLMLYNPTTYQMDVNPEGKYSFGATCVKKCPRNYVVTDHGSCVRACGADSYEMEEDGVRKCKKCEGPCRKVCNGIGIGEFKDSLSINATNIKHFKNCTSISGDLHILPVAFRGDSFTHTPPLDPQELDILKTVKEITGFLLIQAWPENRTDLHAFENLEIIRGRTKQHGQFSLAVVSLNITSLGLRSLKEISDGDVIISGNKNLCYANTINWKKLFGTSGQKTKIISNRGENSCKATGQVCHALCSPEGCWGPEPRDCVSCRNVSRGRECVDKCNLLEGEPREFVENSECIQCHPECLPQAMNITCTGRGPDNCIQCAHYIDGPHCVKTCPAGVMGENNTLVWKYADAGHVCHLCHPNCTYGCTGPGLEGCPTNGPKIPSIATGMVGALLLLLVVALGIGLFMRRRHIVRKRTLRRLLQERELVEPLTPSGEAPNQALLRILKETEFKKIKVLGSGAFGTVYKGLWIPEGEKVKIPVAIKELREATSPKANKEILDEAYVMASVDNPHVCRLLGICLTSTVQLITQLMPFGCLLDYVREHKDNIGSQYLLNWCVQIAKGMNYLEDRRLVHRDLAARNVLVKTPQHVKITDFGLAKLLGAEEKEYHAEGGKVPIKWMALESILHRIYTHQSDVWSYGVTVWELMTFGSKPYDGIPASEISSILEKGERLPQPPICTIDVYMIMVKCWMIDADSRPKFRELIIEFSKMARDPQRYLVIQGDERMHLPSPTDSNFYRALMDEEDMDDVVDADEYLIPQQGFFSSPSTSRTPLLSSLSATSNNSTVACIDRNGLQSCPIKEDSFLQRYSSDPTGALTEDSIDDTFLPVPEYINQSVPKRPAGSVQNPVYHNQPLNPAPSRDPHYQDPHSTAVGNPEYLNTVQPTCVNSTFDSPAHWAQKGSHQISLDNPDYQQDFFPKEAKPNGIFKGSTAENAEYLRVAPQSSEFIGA
Experimental: […] were performed to measure phosphorylated EGFR levels using A431 cells (10% FBS). A431 (1.0*10^4 cells/40 μl/well) cells were seeded in 384 well. Compounds were dissolved in DMSO, serially diluted in DMSO and then were added, mixed, and incubated for 4 hours at 37° C., 5% CO2. Following the 4-hours incubation, cells were stimulated for 10 minutes with EGF (Invitrogen, cat #PHG0311) at a final concentration of 30 ng/mL in the incubator. The media was aspirated and cells were lysed in […] lysis buffer with protease and phosphatase inhibitors (PerkinElmer, cat #ALSU-PEGFR-A50K). The plates were placed on a shaker for 5 minutes and then incubated for 30 min at 4° C. for complete lysis. The lysate was transferred to an Optiplate (Perkin Elmer, cat #6007290).
Acceptor mix (PerkinElmer, cat #ALSU-PEGFR-A50K) was prepared just before use and 5 μL was dispensed to all the wells, followed by a 1.5-2 h incubation at room temperature in dark. The donor mix (PerkinElmer, cat #ALSU-PEGFR-A50K) was prepared under low light conditions prior to use and […] of donor mix was added to all the wells under subdued lighting or green filters. The plates were placed on a shaker for 5 min, sealed, and incubated overnight at room temperature in dark. Plates were read on the Envision (PerkinElmer) using standard AlphaLISA settings.
The percentage of inhibition on EGFR phosphorylation was calculated following equation: % Inhibition=100×(LumHC−LumSample)/(LumHC−LumLC). The low and high controls (LC/HC) are generated from lysate from wells with cells treated with DMSO or […] Staurosporine (BioAustralis, cat #BIA-S1086), […]. IC50 values were calculated by fitting the Curve using XLfit (v5.3.1.3), equation 201: Y=Bottom+(Top−Bottom)/(1+10^((Log IC50−X)*HillSlope)).

pIC50 (Ba/F3 ERBB2 YVMA; Ba/F3 cells expressing human ERBB2 YVMA mutant, 72 hours, cell viability, CellTiter Glo, read-out: Ba/F3 ERBB2 YVMA, IC50) | Structure (SMILES) | pIC50 [1] | pIC50 [2] | IC50 (Ba/F3 ERBB2 YVMA; read-out: Ba/F3 ERBB2 YVMA, IC50, nM) [nM]
8.06 | Cc1cc(Nc2ncnc3cc4c(nc23)N2CCCN(C(=O)/C=C/CN(C)C)C(CO4)C2)ccc1Oc1ccn2ncnc2c1 (racemic) [Compound 54, (E)-1-(4-((4-([1,2,4]triazolo[1,5-a]pyridin-7-yloxy)-3-methylphenyl)amino)-8,9,11,12-tetrahydro-6,11-methanopyrimido[4′,5′:5,6]pyrido[3,2-b][1,4,8]oxadiazecin-10(7H)-yl)-4-(dimethylamino)but-2-en-1-one] | 7.53 | < 5.00 | –
– | [2H]C([2H])([2H])N(C/C=C/C(=O)N1CCN2C[C@H]1COc1cc3ncnc(Nc4cc(C)c(Oc5ccn6ncnc6c5)cc4F)c3nc12)C([2H])([2H])[2H] [Compound 46, (E)-1-((10S)-4-((4-([1,2,4]triazolo[1,5-a]pyridin-7-yloxy)-2-fluoro-5-methylphenyl)amino)-7,8,10,11-tetrahydro-9H-6,10-methanopyrimido[4′,5′:5,6]pyrido[3,2-b][1,4,7]oxadiazonin-9-yl)-4-(bis(methyl-d3)amino)but-2-en-1-one] | 8.16 | 5.61 | 7.04
